From patent publication US9669004B2 (THE ADMINISTRATORS OF THE TULANE EDUCATIONAL FUND, priority 2010, dated 2017)
“Also recorded” adds a separate entry of the source.

How the values were obtained:
MCF-7 cells = assay: clonogenic (colony) assay; assay type: cell-based
Description: MCF-7 cells were placed in phenol red-free DMEM supplemented with 5% dextran-coated charcoal-treated FBS for 48 h before plating. MCF-7 cells (1000) were plated in six well plates. […] Colonies of >50 cells were counted as positive. Results are normalized to percentage of clonogenic survival from DMSO control cells.

[1] = system: E2 stimulation on ERE transcriptional activity in MCF-7 cells; assay: ERE luciferase reporter gene assay in the presence of 0.1 nM E2, antiestrogenic activity; assay type: cell-based; conditions: for inhibition at 25 µM: Homo sapiens, MCF7, 25 μM (highest concentration) plus 0.1 nM E2, read-out: reduction of estradiol-dependent luciferase activity
Description: MCF-7 cells were transiently transfected with pGL2-ERE2x-TK-luciferase plasmid. […] The luciferase activities of the treated cells were then measured by the ERE reporter gene assay.

[2] = system: progesterone receptor (PgR) gene expression in MCF-7 cells; assay: PgR mRNA expression by quantitative real time RT-PCR; assay type: cell-based; conditions: for level of PgR expression: ligand in the presence of 0.1 nM E2, MCF-7 (E2 alone 5-fold); for increase in PgR expression compared with control: ligands only, vs DMSO
From the text: Total RNA was isolated from MCF-7 cells, reverse-transcribed into cDNA and subjected to real-time RT-PCR analysis for quantification. […] Results are expressed as the mean unit±SEM.

[3] = system: ERE transcriptional activity in MCF-7 cells; assay: ERE luciferase reporter gene assay, estrogenic activity; assay type: cell-based; conditions: for ERE transcriptional activity induced: 25 μM; for estrogenic (ERE) activity, in words: MCF-7, compound alone
Description: MCF-7 cells were transiently transfected with pGL2-ERE2x-TK-luciferase plasmid. […] While this order varied slightly as analog concentrations were increased further to 25 μM, several trends have emerged in the dose-dependent data. […] Second, shorter alkyl groups appear to have less effect on the reduction of ER agonist activity than their longer, bulkier counterparts.

MCF-7 cell tumorigenesis = assay: estrogen stimulated MCF-7 cell tumorigenesis xenograft model; assay type: in vivo, Nu/Nu mice; conditions: day 37 post cell injection; mean±SEM; control 351.17±43.88
Description: 4-6 week old ovariectomized female Nu/Nu mice were injected bilaterally in the mammary fat pad (MFP) with 5×10^6 MCF-7 cells in matrigel (reduced factor). […] Tumors were allowed to form and at day 15 post cell injection mice were randomized into groups (n=5). Animals were treated daily with i.p. injections of either vehicle (1:5 DMSO/PBS) or analog 2 (50 mg/kg/animal). Tamoxifen animals were implanted with a slow release tamoxifen pellet in the lateral area of the neck (opposite side from E2 pellet). ICI animals were given a onetime i.p. injection of ICI 182,780 (5 mg in castor oil). Tumor size was measured 3 times weekly using digital calipers. Data represented as mean tumor volume±SEM.
Due to the anti-estrogenic effects of analog 2 on MCF-7 cells observed in the in vitro biological assays, this analog was selected for further testing of estrogen stimulated MCF-7 cell tumorigenesis using a xenograft model. Ovariectomized female immunocompromised mice were injected with MCF-7 cells and supplemented with exogenous estrogen pellets. Once tumors were palpable animals were treated with analog 2, tamoxifen, or ICI and tumor volume compared to vehicle control animals.
Xenograft experiments were conducted using previously published protocols. Briefly, 4-6 week old female ovariectomized NU/Nu mice were obtained from Charles River Laboratories (Wilmington, Mass.). The animals were allowed a period of adaptation in a sterile and pathogen-free environment with phytoestrogen-free food and water ad libitum. MCF-7 cells were harvested in the exponential growth phase using a PBS/EDTA solution and washed. Mice were injected bilaterally in the mammary fat pad (M.F.P) with 5×10^6 viable cells suspended in 50 μL sterile PBS mixed with 100 μL Matrigel (reduced factor; BD Biosciences, Bedford, Mass.). […] All procedures in animals were carried out under anesthesia using a mix of isofluorane and oxygen delivered by mask. […] Tumor size was measured 3 times weekly using digital calipers. The volume of the tumor was calculated using the following formula: 4/3 πLS^2 (L=larger radius; S=shorter radius). […]

MDA-MB-231 cells = assay: MDA-MB-231 xenograft tumor volume; assay type: in vivo, CB-17/SCID mice
Description: 4-6 week old female CB-17/SCID mice were allowed a period of adaptation in a sterile and pathogen-free environment with phytoestrogen-free food and water ad libitum. MDA-MB-231 cells were harvested in the exponential growth phase using a PBS/EDTA solution and washed. Mice were injected bilaterally in the mammary fat pad (MFP) with 5×10^6 viable cells suspended in 50 μL sterile PBS mixed with 100 μL Matrigel (reduced factor; BD Biosciences, Bedford, Mass.). Tumors were allowed to form, and at day 4 post cell injection mice were randomized into groups of 5 mice each. Mice were treated daily with intra-peritoneal (IP) injections of either vehicle (DMSO) or analog 2 (50 mg/kg/animal/day) for 14 days. External tumor size was measured using digital calipers and tumor volume calculated using the formula: 4/3 π LS^2 (L=larger radius; S=shorter radius). At necropsy, animals were euthanized by cervical dislocation after exposure to CO2. […] This trend continued until the mice were euthanized at day 18, where tumor volume for control mice averaged 188±18.78 mm^3 and the tumor volume for mice treated with analog 2 averaged 91.11±10.15 mm^3.

MDA-MB-157 = assay: transwell migration assay; assay type: cell-based; conditions: 10 μM, 24 hours
Description: (§1) TNBC cells were seeded (2.5×10^4 in 500 μl 10% DMEM) in the upper chamber of a 24 well transwell system. DMEM supplemented with FBS (10%) was used as a chemoattractant in the lower wells. After 24 hours of treatment (DMSO or analog 2 10 μM), membranes were scrubbed, stained with 0.1% crystal violet, and the number of migrated cells analyzed by microscopy. Data represented as normalized means of triplicate experiments±SEM. […] The TNBC phenotype is characterized by highly aggressive and migratory cells. The ability of analog 2 to inhibit this migration indicates its potential as a novel anti-metastatic therapeutic in the triple-negative breast carcinoma setting.

MDA-MB-231 = assay: transwell migration assay; assay type: cell-based; conditions: 10 μM, 24 hours
Description: as §1

BT-549 = assay: transwell migration assay; assay type: cell-based; conditions: 10 μM, 24 hours
Description: as §1

[4] = system: AKT and mTOR phosphorylation in MDA-MB-231 cells; assay: immunoblot of phospho-AKT and mTOR; assay type: cell-based
Description: The effects of analog 2 on TNBC may be mediated via alterations in the PI3K/AKT/mTOR pathway. After 72 hours in 5% charcoal-stripped fetal bovine serum (CSFBS) DMEM phenol-free medium, MDA-MB-231 cells were re-fed with either medium-containing vehicle, analog 2 (10 μM, 4 hours), analog 2 (4 hours) followed by EGF stimulation (50 ng/mL, 30 minutes), or EGF alone (30 minutes). Membranes were probed with primary antibodies according to manufacturers' protocol. Antibodies: phosho-AKT (S473 and T308), mTOR ([…]), and corresponding total protein antibodies (Cell Signaling), using rho as a loading control (Santa Cruz).

In the case of `COc1ccc2c(=O)c(-c3ccc(O)cc3)coc2c1` [3a, 3-(4-Hydroxyphenyl)-7-methoxychromen-4-one], the “increase of cell proliferation (clonogenicity)” value (MCF-7 cells; 1 μM, without E2, vs DMSO) is reported as 43%, the “increase in clonogenicity of MCF-7 cells” value (MCF-7 cells; 10 μM, without E2, vs DMSO) is reported as 24% and the inhibition at 25 µM [1] is reported as under 47%. The “level of PgR expression” value [2] was 4 fold, the “increase in PgR expression compared with control” value (from here on “increase in PgR expression”) ([2]; MCF-7) was 3 fold and the ERE activity ([3]; 10 μM, MCF-7, normalized to E2 (100)) was 38%. For the same compound, the “ERE transcriptional activity induced” value ([3]; MCF-7, normalized to E2 (100)) was 70.9%.

In the case of `CCOc1ccc2c(=O)c(-c3ccc(O)cc3)coc2c1` [3b, 3-(4-Hydroxyphenyl)-7-ethoxychromen-4-one], the inhibition at 25 µM [1] is reported as under 47% and the “ERE transcriptional activity induced” value ([3]; MCF-7, normalized to E2 (100)) is reported as 80.4%.

`CCCOc1ccc2c(=O)c(-c3ccc(O)cc3)coc2c1` [3c, 3-(4-Hydroxyphenyl)-7-propoxychromen-4-one] was tested, and the inhibition at 25 µM [1] was under 47% and the “ERE transcriptional activity induced” value ([3]; MCF-7, normalized to E2 (100)) was 38.4%.

With `CC(C)Oc1ccc2c(=O)c(-c3ccc(O)cc3)coc2c1` [3d, 3-(4-Hydroxyphenyl)-7-isopropoxychromen-4-one] the inhibition at 25 µM [1] was over 60%.

`CCCCOc1ccc2c(=O)c(-c3ccc(O)cc3)coc2c1` [3e, 7-Butoxy-3-(4-hydroxyphenyl)chromen-4-one] gave an inhibition at 25 µM [1] of under 47%.

In the case of `CC(C)COc1ccc2c(=O)c(-c3ccc(O)cc3)coc2c1` [3f, 3-(4-Hydroxyphenyl)-7-isobutoxychromen-4-one], the inhibition at 25 µM [1] is reported as over 60% and the “estrogenic (ERE) activity, in words” value [3] is reported as “negligible ERE activity”.

With `O=c1c(-c2ccc(O)cc2)coc2cc(OC3CCCC3)ccc12` [3g, 7-Cyclopentyloxy-3-(4-hydroxyphenyl)chromen-4-one] the inhibition at 25 µM [1] was over 60% and the “estrogenic (ERE) activity, in words” value [3] was “negligible ERE activity”.

`CCCCCCOc1ccc2c(=O)c(-c3ccc(O)cc3)coc2c1` [3h, 7-Hexyloxy-3-(4-hydroxyphenyl)chromen-4-one] showed an inhibition at 25 µM [1] of under 47%.

In the case of `C[C@]12CC[C@@H]3c4ccc(O)cc4CC[C@H]3[C@@H]1CC[C@@H]2O` [E2, 17β-estradiol, reference compound], the “increase in clonogenicity of MCF-7 cells” value (MCF-7 cells; 0.1 nM, vs DMSO treated controls) is reported as “approximately 3 fold” and the “increase in PgR expression” value ([2]; MCF-7) is reported as 5 fold.

Compound `C[C@]12CC[C@@H]3c4ccc(O)cc4C[C@@H](CCCCCCCCC[S+]([O-])CCCC(F)(F)C(F)(F)F)[C@H]3[C@@H]1CC[C@@H]2O` (stereo partly drawn) [ICI 182,780] has a tumor volume (MCF-7 cell tumorigenesis) of 130.95±23.49 mm3.

`CC1(C)C=Cc2c(ccc3c(=O)c(-c4ccc(O)cc4)coc23)O1` [compound 2, 3-(4-Hydroxyphenyl)-8,8-dimethyl-8H-pyrano[2,3-f]chromen-4-one] was tested, and the tumor volume (MDA-MB-231 cells; day 18, 50 mg/kg/animal/day IP for 14 days, control 188±18.78) was 91.11±10.15 mm^3, the “tumor volume vs control, in words” value (MDA-MB-231 cells; seven days after cell injection, three days' treatment) was “statistically less than those of control mice” and the “clonogenicity in the presence of E2, in words” value (MCF-7 cells; 10 μM plus 0.1 nM estradiol) was “inhibit the clonogenicity of MCF-7 cells completely”. For the same compound, the “cell clonogenicity, in words” value (MCF-7 cells; 10 μM, without E2) was “completely blocked cell clonogenicity”, the inhibition at 1 µM (MCF-7 cells; Homo sapiens, MCF7, read-out: inhibition of clonogenicity) was 15% and the “number of migrated cells compared to control (normalized to 100%)” value (shortened to “number … (normalized to 100%)”) (MDA-MB-157) was 25.57%. The “number … (normalized to 100%)” value (MDA-MB-231) was 0%, the “number … (normalized to 100%)” value (BT-549) was 0.08% and the “blocking of ERE activity, in words” value ([1]; 25 μM plus 0.1 nM E2) was “completely blocking ERE activity”. For the same compound, the “level of PgR expression” value [2] was 3 fold, the “PgR expression compared with DMSO, in words” value ([2]; ligand only, MCF-7) was “decrease in PgR expression” and the “estrogenic (ERE) activity, in words” value [3] was “little or no estrogen activity; also recorded: negligible ERE activity”. For the same compound, the “effect on EGF-stimulated AKT and mTOR phosphorylation, in words” value ([4]; 10 μM 4 hours then EGF 50 ng/mL 30 minutes) was “significantly abrogate the effects of EGF stimulation on AKT and mTOR phosphorylation”, the “phospho-levels of AKT at S473 and T308, in words” value ([4]; 10 μM, 4 hours) was “significant decreases” and the tumor volume (MCF-7 cell tumorigenesis) was 241.53±68.29 mm3.

`O=c1c(-c2ccc(O)cc2)coc2cc(O)ccc12` [daidzein, reference compound] was tested, and the “increase in clonogenicity of MCF-7 cells” value (MCF-7 cells; 1 μM, without E2, vs DMSO) was “over 3 fold”, the “increase in clonogenicity of MCF-7 cells” value (MCF-7 cells; 10 μM, without E2, vs DMSO) was 2.5 times and the “level of PgR expression” value [2] was 5 fold. The “increase in PgR expression” value ([2]; MCF-7) was 3 fold and the “estrogenic (ERE) activity, in words” value [3] was “more potent estrogenic activity than any of its derivatives”.

With `CC/C(=C(\c1ccccc1)c1ccc(OCCN(C)C)cc1)c1ccccc1` [tamoxifen] the tumor volume (MCF-7 cell tumorigenesis) was 178.12±41.18 mm3.
